Experimental data published in US11479539B2, “Small molecule modulators of the BTB domain of Keap1” (MedImmune Limited, priority 2017, dated 2022).

molecular target: Keap1 (Homo sapiens (Human), UniProt Q14145); test: HEK293 ARE luciferase assay; type: cell-based; settings: HEK-293 ARE firefly luciferase transiently transfected cells; 18 h incubation; mean of 1 to 20 individual measurements
Text: The purpose of this assay is to identify small molecule inhibitors of Keap1, preventing Keap1 binding to Nrf2, and thus activating the Nrf2 signalling pathway in HEK-293 ARE firefly luciferase transiently transfected cells. HEK-293 cells express wild-type Keap1 protein and therefore have low constitutive levels of Nrf2 protein and Nrf2-dependent transcription. […] When Keap1 is inhibited, Nrf2 signalling is activated, and there is an increase in luciferase expression and light emission.
Cryopreserved HEK ARE luciferase cells were rapidly thawed in a 37° C. water bath and resuspended in assay culture medium (DMEM, 10% FCS, 2 mM L-glutamine). The cell suspension was pelleted by centrifugation ([…]; 300 g) using a Heraeus benchtop centrifuge. Supernatant was removed and the pellet was gently resuspended in 5 mL culture medium per vial. Cell viability and cell number was measured using an Invitrogen Countess automated cell counter (typical viability 80%), and cells were diluted to a density of 5.0×10^5 cells/mL.
Cells were then plated out into white 384-well plates (Greiner 781080) using a Multidrop Combi, 20 μL/well, to give 10,000 cells/well. As appropriate, test compounds had been added to wells prior to dispensing cells using an Echo 555 acoustic dispenser (Labcyte). Plates were left at room temperature for ˜10 min to promote even cell settling across the plate before incubation for 18 h at 37° C., 95% humidity and 5% CO2.
After 18 h incubation, plates were removed from the incubator and allowed to cool to room temperature for 30 min, before 10 μL per well SteadyGlo reagent detection reagent was added (as per manufacturer's instructions, 10 min before required 10 mL room temperature buffer was added to one vial of lyophilised substrate and inverted several times to fully dissolve). Plates were then incubated in the dark for 30 min before reading on an Envision plate reader.
Compounds were acoustically dispensed using a Labcyte Echo, using a 10 pt dose curve with a top concentration of 100 μM. Assay wells were backfilled with DMSO to a total of 60 nL to maintain 0.3% (v/v) DMSO through the assay.
The Stimulator signal was defined using 30 μM tert-butyl hydroquinone (tBHQ) and the Neutral signal by DMSO vehicle control. All calculations were performed using GeneData.
In IBIS Column Calculations, Assay Type was set to ‘Stimulator’, and the Activity Threshold was set to 50.
The mean values were calculated from anywhere from 1 to 20 individual measurements.

Keap1, sequence (Q14145 whole entry): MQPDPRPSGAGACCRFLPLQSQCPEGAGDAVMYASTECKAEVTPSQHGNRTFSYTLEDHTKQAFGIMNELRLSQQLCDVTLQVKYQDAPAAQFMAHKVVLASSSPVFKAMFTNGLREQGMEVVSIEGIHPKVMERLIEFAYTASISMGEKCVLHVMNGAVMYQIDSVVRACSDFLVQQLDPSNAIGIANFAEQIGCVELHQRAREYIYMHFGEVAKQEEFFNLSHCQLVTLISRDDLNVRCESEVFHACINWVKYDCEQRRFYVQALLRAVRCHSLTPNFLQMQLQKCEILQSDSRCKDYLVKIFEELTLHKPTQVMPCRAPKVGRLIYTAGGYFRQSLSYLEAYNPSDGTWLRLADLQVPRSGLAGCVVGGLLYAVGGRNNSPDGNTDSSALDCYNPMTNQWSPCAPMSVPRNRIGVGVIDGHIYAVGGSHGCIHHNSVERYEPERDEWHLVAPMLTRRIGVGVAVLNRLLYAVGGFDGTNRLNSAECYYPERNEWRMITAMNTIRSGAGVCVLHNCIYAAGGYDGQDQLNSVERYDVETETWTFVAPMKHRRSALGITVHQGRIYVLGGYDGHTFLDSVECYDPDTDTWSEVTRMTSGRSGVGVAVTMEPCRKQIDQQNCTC

Structure (SMILES)	EC50
COC1(c2cncc(C)n2)C=C(C#N)C(=O)C2(CC2)C1 (single isomer, unassigned) [Compound 54, 7-methoxy-7-(6-methylpyrazin-2-yl)-4-oxospiro[2.5]oct-5-ene-5-carbonitrile]	0.363 µM
COC1(c2ccccn2)C=C(C#N)C(=O)C2(CC2)C1 (single isomer, unassigned) [Compound 56, 7-methoxy-4-oxo-7-(pyridin-2-yl)spiro[2.5]oct-5-ene-5-carbonitrile]	0.179 µM
COC1(c2ncccc2C(F)(F)F)C=C(C#N)C(=O)C2(CC2)C1 (single isomer, unassigned) [Compound 57, 7-methoxy-4-oxo-7-[3-(trifluoromethyl)pyridin-2-yl]spiro[2.5]oct-5-ene-5-carbonitrile]	0.047 µM
COC1(c2nc(C)cs2)C=C(C#N)C(=O)C2(CC2)C1 (single isomer, unassigned) [Compound 59, 7-methoxy-4-7-(4-methyl-1,3-thiazol-2-yl)-4-oxospiro[2.5]oct-5-ene-5-carbonitrile]	0.261 µM
COC1(c2ncc(F)cc2F)C=C(C#N)C(=O)C2(CC2)C1 (single isomer, unassigned) [Compound 60, 7-(3,5-difluoropyridin-2-yl)-7-methoxy-4-oxospiro[2.5]oct-5-ene-5-carbonitrile]	0.153 µM
COC1(c2ncc(Cl)cc2F)C=C(C#N)C(=O)C2(CC2)C1 (single isomer, unassigned) [Compound 61, 7-(5-chloro-3-fluoropyridin-2-yl)-7-methoxy-4-oxospiro[2.5]oct-5-ene-5-carbonitrile]	0.079 µM
COC1(c2ncc(F)cc2OC(F)F)C=C(C#N)C(=O)C2(CC2)C1 (single isomer, unassigned) [Compound 62, 7-[3-(difluorometh-oxy)-5-fluoropyridin-2-yl]-7-methoxy-4-oxospiro[2.5]oct-5-ene-5-carbonitrile]	0.015 µM
COC1(c2ncc(F)cc2C(F)F)C=C(C#N)C(=O)C2(CC2)C1 (single isomer, unassigned) [Compound 63, 7-[3-(difluoromethyl)-5-fluoropyridin-2-yl]-7-methoxy-4-oxospiro[2.5]oct-5-ene-5-carbonitrile]	0.018 µM
COC1(c2ncccc2C(F)(F)F)C=C(C#N)C(=O)C2(CCCC2)C1 (single isomer, unassigned) [Compound 66, 9-methoxy-6-oxo-9-[3-(trifluoromethyl)pyridin-2-yl]spiro[4.5]dec-7-ene-7-carbonitrile]	0.126 µM
COC1(c2ccc(F)cn2)C=C(C#N)C(=O)C2(CCCC2)C1 (single isomer, unassigned) [Compound 67, 9-(5-fluoropyridin-2-yl)-9-methoxy-6-oxospiro[4.5]dec-7-ene-7-carbonitrile]	0.239 µM
COC1(c2ncc(F)cc2C)C=C(C#N)C(=O)C2(CCCC2)C1 (single isomer, unassigned) [Compound 68, 9-(5-fluoro-3-methylpyridin-2-yl)-9-methoxy-6-oxospiro[4.5]dec-7-ene-7-carbonitrile]	0.07 µM
COC1(c2ncc(F)cc2-c2cnn(C)c2)C=C(C#N)C(=O)C(C)(C)C1 (single isomer, unassigned) [Compound 69, 3-[5-fluoro-3-(1-methyl-1H-pyrazol-4-yl)pyridin-2-yl]-3-methoxy-5,5-dimethyl-6-oxocyclohex-1-ene-1-carbonitrile]	0.002 µM
COC1(c2ncc(F)cc2-c2ccc(F)cc2)C=C(C#N)C(=O)C(C)(C)C1 (single isomer, unassigned) [Compound 70, 3-[5-fluoro-3-(4-fluorophenyl)pyridin-2-yl]-3-methoxy-5,5-dimethyl-6-oxocyclohex-1-ene-1-carbonitrile]	0.015 µM
COC1(c2ncc(F)cc2-c2cnn(C)c2C)C=C(C#N)C(=O)C(C)(C)C1 (single isomer, unassigned) [Compound 71, 3-[3-(1,5-dimethyl-1H-pyrazol-4-yl)-5-fluoropyridin-2-yl]-3-methoxy-5,5-dimethyl-6-oxocyclohex-1-ene-1-carbonitrile]	0.009 µM
COC1(c2ncc(F)cc2-c2cnn(C3CC3)c2)C=C(C#N)C(=O)C(C)(C)C1 (single isomer, unassigned) [Compound 72, 3-[3-(1-cyclopropyl-1H-pyrazol-4-yl)-5-fluoropyridin-2-yl]-3-methoxy-5,5-dimethyl-6-oxocyclohex-1-ene-1-carbonitrile]	0.006 µM
COC1(c2ncc(F)cc2-c2cnc(C)s2)C=C(C#N)C(=O)C(C)(C)C1 (single isomer, unassigned) [Compound 73, 3-[5-fluoro-3-(2-methyl-1,3-thiazol-5-yl)pyridin-2-yl]-3-methoxy-5,5-dimethyl-6-oxocyclohex-1-ene-1-carbonitrile]	0.007 µM
COC1(c2ncc(F)cc2-c2cccn(C)c2=O)C=C(C#N)C(=O)C(C)(C)C1 (single isomer, unassigned) [Compound 75, 3-[5-fluoro-3-(1-methyl-2-oxo-3-pyridyl)-2-pyridyl]-3-methoxy-5,5-dimethyl-6-oxo-cyclohexene-1-carbonitrile]	0.036 µM
COC1(c2ncc(F)cc2-c2ccnc(C)c2)C=C(C#N)C(=O)C(C)(C)C1 (single isomer, unassigned) [Compound 76, 3-[5-fluoro-3-(2-methyl-4-pyridyl)-2-pyridyl]-3-methoxy-5,5-dimethyl-6-oxo-cyclohexene-1-carbonitrile]	0.003 µM
COC1(c2ncc(F)cc2-c2cc(C)nc(C)c2)C=C(C#N)C(=O)C(C)(C)C1 (single isomer, unassigned) [Compound 77, 3-[3-(2,6-dimethyl-4-pyridyl)-5-fluoro-2-pyridyl]-3-methoxy-5,5-dimethyl-6-oxo-cyclohexene-1-carbonitrile]	0.004 µM
COC1(c2ncc(F)cc2-c2cn(C)nc2C)C=C(C#N)C(=O)C(C)(C)C1 (single isomer, unassigned) [Compound 78, 3-[3-(1,3-dimethylpyrazol-4-yl)-5-fluoro-2-pyridyl]-3-methoxy-5,5-dimethyl-6-oxo-cyclohexene-1-carbonitrile]	0.002 µM
COC1(c2ncc(F)cc2-c2cccnc2C)C=C(C#N)C(=O)C(C)(C)C1 (single isomer, unassigned) [Compound 79, 3-[5-fluoro-3-(2-methyl-3-pyridyl)-2-pyridyl]-3-methoxy-5,5-dimethyl-6-oxo-cyclohexene-1-carbonitrile]	0.074 µM
COC1(c2ncc(F)cc2-c2cnn(-c3ccccc3)c2)C=C(C#N)C(=O)C(C)(C)C1 (single isomer, unassigned) [Compound 81, 3-[5-fluoro-3-(1-phenylpyrazol-4-yl)-2-pyridyl]-3-methoxy-5,5-dimethyl-6-oxo-cyclohexene-1-carbonitrile]	0.002 µM
COC1(c2ncc(F)cc2-c2ccnc(C)c2C)C=C(C#N)C(=O)C(C)(C)C1 (single isomer, unassigned) [Compound 82, 3-[3-(2,3-dimethyl-4-pyridyl)-5-fluoro-2-pyridyl]-3-methoxy-5,5-dimethyl-6-oxo-cyclohexene-1-carbonitrile]	0.052 µM
COC1(c2ncc(F)cc2-c2cnn(C3CCCC3)c2)C=C(C#N)C(=O)C(C)(C)C1 (single isomer, unassigned) [Compound 83, 3-[3-(1-cyclopentylpyrazol-4-yl)-5-fluoro-2-pyridyl]-3-methoxy-5,5-dimethyl-6-oxo-cyclohexene-1-carbonitrile]	0.07 µM
COC1(c2ncc(F)cc2-c2cncc(F)c2)C=C(C#N)C(=O)C(C)(C)C1 (single isomer, unassigned) [Compound 84, 3-[5-fluoro-3-(5-fluoro-3-pyridyl)-2-pyridyl]-3-methoxy-5,5-dimethyl-6-oxo-cyclohexene-1-carbonitrile]	0.006 µM
COC1(c2ncc(F)cc2-c2cncc(C#N)c2)C=C(C#N)C(=O)C(C)(C)C1 (single isomer, unassigned) [Compound 85, 2′-(3-cyano-1-methoxy-5,5-dimethyl-4-oxocyclohex-2-enyl)-5′-fluoro-3,3′-bipyridine-5-carbonitrile]	0.006 µM
CCn1cc(-c2cc(F)cnc2C2(OC)C=C(C#N)C(=O)C(C)(C)C2)cn1 (single isomer, unassigned) [Compound 86, 3-[3-(1-ethylpyrazol-4-yl)-5-fluoro-2-pyridyl]-3-methoxy-5,5-dimethyl-6-oxo-cyclohexene-1-carbonitrile]	0.009 µM
COC1(c2ncc(F)cc2-c2cncc(C(F)(F)F)c2)C=C(C#N)C(=O)C(C)(C)C1 (single isomer, unassigned) [Compound 87, 3-[5-fluoro-3-[5-(trifluoromethyl)-3-pyridyl]-2-pyridyl]-3-methoxy-5,5-dimethyl-6-oxo-cyclohexene-1-carbonitrile]	0.017 µM
